Laboratory results taken from US6069130A, “Ketoheterocyclic inhibitors of factor Xa” (COR Therapeutics, Inc., priority 1995, dated 2000).

Assays:
[1] = rabbit, in vivo
From the text: (§1) Rabbits were anesthetized with I.M. injections of Ketamine, Xylazine, and Acepromazine cocktail. A standardized protocol consisted of insertion of a thrombogenic cotton thread and copper wire apparatus into the abdominal vena cava of the anesthetized rabbit. A non-occlusive thrombus was allowed to develop in the central venous circulation and inhibition of thrombus growth was used as a measure of the antithrombotic activity of the studied compounds. Test agents or control saline were administered through a marginal ear vein catheter. A femoral vein catheter was used for blood sampling prior to and during steady state infusion of test compound. Initiation of thrombus formation begins immediately after advancement of the cotton thread apparatus into the central venous circulation. Test compounds were administered from time=30 min to time=150 min at which the experiment was terminated. The rabbits were euthanized and the thromidus excised by surgical dissection and characterized by weight and histology. Blood samples were analyzed for changes in hematological and coagulation parameters.

[2] = test system: thrombus growth in abdominal vena cava; experiment: rabbit deep vein thrombosis model, inhibition of thrombus growth; assay type: in vivo; details: for of Thrombosis (inhibition of thrombus growth): rabbit
From the text: as §1

[3] = coagulation parameters (aPTT, PT) in rabbit venous thrombosis model; assay type: in vivo; details: for fold increase over baseline PT / fold increase over baseline aPTT: rabbit, steady state, mean ± SD
From the text: as §1

[4] = highest dose (100 μg/kg+2.57 μg/kg/min)

effects on hematological parameters as compared to saline controls (in words) [1]: no significant effects
SMILES: NC(N)=NCCCC(N)C(=O)NCC(=O)NC(CCCN=C(N)N)C(=O)c1nccs1 [H-D-Arg-Gly-Arg-thiazole, (D)-Arg-Gly-Arg-thiazole]
antithrombotic efficacy in the rabbit venous thrombosis model (in words) ([2]; at the higher doses evaluated): demonstrated antithrombotic efficacy at the higher doses evaluated
of Thrombosis (inhibition of thrombus growth) ([2]; i.v. 50 μg/kg + 1.28 μg/kg/min): -7.84
of Thrombosis (inhibition of thrombus growth) ([2]; i.v. 75 μg/kg + 1.93 μg/kg/min): 42.955
of Thrombosis (inhibition of thrombus growth) ([2]; i.v. 100 μg/kg + 2.57 μg/kg/min): 117.72
effect on PT prolongation (in words) [3, 4]: no significant effect
effect on aPTT prolongation (in words) [3, 4]: no significant effect
fold increase over baseline PT ([3]; 50 μg/kg + 1.28 μg/kg/min): 1.00 ± 0.00 fold
fold increase over baseline aPTT ([3]; 50 μg/kg + 1.28 μg/kg/min): 1.00 ± 0.03 fold
fold increase over baseline PT ([3]; 75 μg/kg + 1.93 μg/kg/min): 1.00 ± 0.00 fold
fold increase over baseline aPTT ([3]; 75 μg/kg + 1.93 μg/kg/min): 1.02 ± 0.03 fold
fold increase over baseline PT ([3]; 100 μg/kg + 2.57 μg/kg/min): 0.83 ± 0.00 fold
fold increase over baseline aPTT ([3]; 100 μg/kg + 2.57 μg/kg/min): 1.08 ± 0.02 fold
